Measured values as given in ChEMBL document CHEMBL1201862, “PubChem BioAssay data set” (2004).
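Exposure lasted 48 hours, with cells grown in 96-well plates and compounds tested at five concentrations. Here, GI50 denotes the concentration required for 50% inhibition of growth.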 Active and inactive are the calls of the source. Rule as the data show it: active = GI50 up to about 1.1 µM and inactive = higher.

How the values were obtained:
Experiment in all cases: growth of human tumour cells (NCI), 48 h
A498 = system: A498
CAKI-1 = system: CAKI-1
EKVX = system: EKVX
HCC 2998 = system: HCC 2998
HL-60 = system: HL-60
HOP-62 = system: HOP-62
HOP-92 = system: HOP-92
IGROV-1 = system: IGROV-1
M14 = system: M14
Malme-3M = system: Malme-3M
NCI-H522 = system: NCI-H522
OVCAR-3 = system: OVCAR-3
SF-268 = system: SF-268
SK-MEL-28 = system: SK-MEL-28
SK-MEL-2 = system: SK-MEL-2
SNB-19 = system: SNB-19
SNB-78 = system: SNB-78
TK-10 = system: TK-10
LOX IMVI = system: LOX IMVI
NCI-H226 = system: NCI-H226

Measured: GI50

CC(OC(C)(C)C)[C@H](NC(=O)OCC(Cl)(Cl)Cl)C(=O)O (stereo partly specified)
inactive: A498 > 100 µM | CAKI-1 > 100 µM | EKVX > 100 µM | HCC 2998 > 100 µM | HL-60 > 100 µM | HOP-62 > 100 µM | HOP-92 > 100 µM | IGROV-1 > 100 µM | M14 > 100 µM | Malme-3M > 100 µM | NCI-H522 > 100 µM | OVCAR-3 > 100 µM | SF-268 > 100 µM | SK-MEL-28 > 100 µM | SK-MEL-2 > 100 µM | SNB-19 > 100 µM | SNB-78 > 100 µM | TK-10 > 100 µM

O=C1C(Cl)N(c2cccc(Cl)c2)C1c1c[nH]c2ccccc12 (stereo unspecified)
inactive: EKVX > 100 µM | HL-60 > 100 µM | HOP-62 > 100 µM | HOP-92 > 100 µM | IGROV-1 > 100 µM | M14 > 100 µM | Malme-3M > 100 µM | NCI-H522 > 100 µM | OVCAR-3 > 100 µM | SF-268 > 100 µM | SK-MEL-28 > 100 µM | SK-MEL-2 > 100 µM | SNB-19 > 100 µM | TK-10 > 100 µM

CCOC(=O)C(Cc1ccccc1)NC(=O)OC(C)(C)C (stereo unspecified)
inactive: A498 > 100 µM | CAKI-1 > 10 µM | HCC 2998 > 100 µM | HL-60 > 100 µM | HOP-62 > 100 µM | HOP-92 > 100 µM | IGROV-1 > 100 µM | LOX IMVI > 100 µM | M14 > 100 µM | Malme-3M > 100 µM | NCI-H522 > 10 µM | OVCAR-3 > 100 µM | SF-268 > 100 µM | SK-MEL-28 > 100 µM | SK-MEL-2 > 100 µM | SNB-19 > 100 µM | SNB-78 > 100 µM | TK-10 > 100 µM

COc1ccc(-c2cc(-c3cc(OC)c(OC)c(OC)c3)cc(-c3cc4ccccc4oc3=O)n2)cc1
inactive: A498 5.65 µM | CAKI-1 4.86 µM | EKVX 10.9 µM | HCC 2998 17.3 µM | HL-60 > 100 µM | HOP-62 2.25 µM | HOP-92 4.07 µM | IGROV-1 7.06 µM | LOX IMVI 12.7 µM | M14 16.6 µM | Malme-3M 5.77 µM | NCI-H226 3.95 µM | NCI-H522 6.85 µM | OVCAR-3 17 µM | SF-268 3.45 µM | SK-MEL-2 20 µM | SNB-19 10.2 µM | TK-10 8.18 µM

Clc1cc2c(c(CSC3=NCN(CC4CC4)CN3)c1)OCOC2
inactive: A498 20.7 µM | CAKI-1 34.2 µM | EKVX 20 µM | HCC 2998 15.2 µM | HL-60 13.6 µM | HOP-62 21.9 µM | HOP-92 37.6 µM | IGROV-1 35.9 µM | LOX IMVI 25.1 µM | M14 13.8 µM | Malme-3M 18.2 µM | NCI-H226 20.7 µM | NCI-H522 14.5 µM | OVCAR-3 23.4 µM | SF-268 27.3 µM | SK-MEL-28 19.8 µM | SK-MEL-2 19.1 µM | SNB-19 26.1 µM | TK-10 17.2 µM

COc1ccc2c(c1)CCN=C2Cc1cc(OC)c(OC)cc1CCCl
inactive: CAKI-1 > 100 µM | EKVX > 100 µM | HCC 2998 30.5 µM | HOP-62 3.08 µM | HOP-92 11.1 µM | IGROV-1 52.4 µM | LOX IMVI 31.9 µM | M14 21.2 µM | Malme-3M 27.4 µM | NCI-H226 64.6 µM | NCI-H522 21.7 µM | OVCAR-3 22.7 µM | SF-268 48.6 µM | SK-MEL-28 66.2 µM | SK-MEL-2 > 100 µM | SNB-19 97.1 µM | TK-10 35.7 µM

O=C1C=CC2=[N+]([O-])C(c3ccccc3)(c3ccccc3)/C(=N\c3ccccc3)C2=C1
inactive: CAKI-1 2.44 µM | EKVX 4.14 µM | HCC 2998 6.3 µM | HOP-62 14.6 µM | HOP-92 1.7 µM | IGROV-1 1.82 µM | LOX IMVI 1.8 µM | M14 1.97 µM | Malme-3M 2.29 µM | NCI-H226 8.89 µM | NCI-H522 1.61 µM | OVCAR-3 1.82 µM | SF-268 3.28 µM | SK-MEL-2 18.2 µM | SNB-19 17.2 µM | SNB-78 3.74 µM | TK-10 1.8 µM
active: HL-60 0.349 µM

N#CC1(C#N)C(=O)c2ccncc2C1=O
inactive: A498 > 100 µM | CAKI-1 > 100 µM | EKVX > 100 µM | HCC 2998 > 100 µM | HL-60 > 100 µM | HOP-92 > 100 µM | IGROV-1 > 100 µM | M14 > 100 µM | Malme-3M > 100 µM | NCI-H226 > 100 µM | NCI-H522 > 100 µM | OVCAR-3 > 100 µM | SF-268 > 100 µM | SK-MEL-28 > 100 µM | SK-MEL-2 > 100 µM | SNB-19 > 100 µM

O=C1NC2=C(CCCC/C2=N\O)C12CCCCC2
inactive: A498 > 100 µM | EKVX > 100 µM | HCC 2998 > 100 µM | HL-60 32.7 µM | HOP-62 > 100 µM | IGROV-1 > 100 µM | LOX IMVI > 100 µM | M14 > 100 µM | Malme-3M > 100 µM | NCI-H226 > 100 µM | OVCAR-3 > 100 µM | SF-268 > 100 µM | SK-MEL-28 > 100 µM | SNB-19 > 100 µM | SNB-78 > 100 µM | TK-10 > 100 µM

C=C(C)[C@@H]1CCC2=C[C@H](CC(C)=CC3=CC(C)=C(O3)[C@@H]1OC)OC2=O
inactive: A498 53.6 µM | CAKI-1 > 100 µM | EKVX 59.2 µM | HCC 2998 > 100 µM | HL-60 > 100 µM | HOP-92 33.3 µM | IGROV-1 > 100 µM | M14 41.5 µM | Malme-3M > 100 µM | NCI-H226 73.8 µM | NCI-H522 > 100 µM | OVCAR-3 > 100 µM | SF-268 33.7 µM | SK-MEL-28 > 100 µM | SK-MEL-2 20.9 µM | SNB-19 37.2 µM | TK-10 85.3 µM

CCOC(=O)c1ccc(N(CCOS(=O)(=O)c2ccc(C)cc2)CCOS(=O)(=O)c2ccc(C)cc2)cc1
inactive: A498 > 100 µM | CAKI-1 4.94 µM | EKVX > 100 µM | HCC 2998 > 100 µM | HOP-92 > 100 µM | IGROV-1 > 100 µM | LOX IMVI > 100 µM | M14 > 100 µM | Malme-3M > 100 µM | NCI-H522 > 100 µM | OVCAR-3 > 100 µM | SF-268 > 100 µM | SK-MEL-2 19.8 µM | SNB-19 > 100 µM | TK-10 > 100 µM

CCOC(=O)CC(=O)CSc1c(-c2ccccc2)c(=O)n(-c2ccccc2)c(=S)n1-c1ccccc1
inactive: A498 > 100 µM | CAKI-1 > 100 µM | EKVX > 100 µM | HCC 2998 > 100 µM | HL-60 > 100 µM | HOP-62 > 100 µM | HOP-92 > 100 µM | IGROV-1 19.8 µM | LOX IMVI > 100 µM | M14 > 100 µM | Malme-3M > 100 µM | NCI-H226 > 100 µM | NCI-H522 69.7 µM | OVCAR-3 > 100 µM | SF-268 > 100 µM | SK-MEL-28 > 100 µM | SNB-19 > 100 µM | TK-10 > 100 µM

Cc1ccc(Nc2n[nH]c(NS(=O)(=O)c3cc(C(=O)Nc4ccc(Cl)cc4)c(Cl)cc3S)n2)cc1
inactive: CAKI-1 > 100 µM | EKVX 35 µM | HL-60 33.7 µM | HOP-62 > 100 µM | IGROV-1 > 100 µM | LOX IMVI 48.4 µM | M14 > 100 µM | Malme-3M 50.5 µM | OVCAR-3 > 100 µM | SF-268 > 100 µM | SK-MEL-28 > 100 µM | SNB-19 > 100 µM | TK-10 > 100 µM

CC(=O)O[C@]12CCCCCC1C1(O)C(O)CCCC[C@H]12 (stereo partly specified)
inactive: EKVX > 100 µM | HL-60 > 100 µM | HOP-62 > 100 µM | LOX IMVI > 100 µM | M14 > 100 µM | Malme-3M > 100 µM | NCI-H226 > 100 µM | NCI-H522 > 100 µM | SF-268 > 100 µM | SK-MEL-28 > 100 µM | SK-MEL-2 > 100 µM | SNB-19 > 100 µM | SNB-78 > 100 µM | TK-10 > 100 µM

O=S(=O)(O)c1ccc(/N=N\c2ccc(/N=N/c3ccc(/C=C/c4ccc(/N=[N+](\[O-])c5ccc(/C=C/c6ccc(/N=N/c7ccc(/N=N/c8ccc(S(=O)(=O)O)cc8)c8ccccc78)cc6S(=O)(=O)O)c(S(=O)(=O)O)c5)cc4S(=O)(=O)O)c(S(=O)(=O)O)c3)c3ccccc23)cc1
inactive: A498 > 100 µM | EKVX > 100 µM | HCC 2998 > 100 µM | HL-60 > 100 µM | HOP-62 > 100 µM | HOP-92 > 81.1 µM | IGROV-1 32.3 µM | LOX IMVI > 100 µM | Malme-3M > 100 µM | NCI-H226 > 83.4 µM | NCI-H522 54.5 µM | OVCAR-3 99.1 µM | SF-268 > 100 µM | SK-MEL-28 > 100 µM | SK-MEL-2 > 100 µM | SNB-19 > 10 µM | SNB-78 > 100 µM

O=C(O)Cc1cccc2c1Oc1ccccc1S2
inactive: A498 > 100 µM | EKVX > 100 µM | HCC 2998 > 100 µM | HL-60 > 100 µM | HOP-62 > 100 µM | HOP-92 > 100 µM | IGROV-1 > 100 µM | LOX IMVI > 100 µM | M14 > 100 µM | Malme-3M > 100 µM | NCI-H226 > 100 µM | OVCAR-3 > 100 µM | SF-268 > 100 µM | SK-MEL-28 > 100 µM | SK-MEL-2 > 100 µM | SNB-19 > 100 µM | SNB-78 > 100 µM | TK-10 > 100 µM
